The source of these data is ChEMBL document CHEMBL5614455, “Novel Azepino[4,5-b]indolone as cGAS Inhibitors for Treating Immune-Mediated Diseases” (ACS Med Chem Lett, 2024).

Each structure is given as a SMILES string.

The target of the assay is Cyclic GMP-AMP synthase (Homo sapiens, UniProt Q8N884). The experiment in a line: Inhibition of full length his-tagged human recombinant cGAS extracted from Escherichia coli BL21 (DE3) incubated for 3 hrs by rapidfire 365 mass spectrometry analysis.
Cyclic GMP-AMP synthase, sequence (Q8N884 whole entry): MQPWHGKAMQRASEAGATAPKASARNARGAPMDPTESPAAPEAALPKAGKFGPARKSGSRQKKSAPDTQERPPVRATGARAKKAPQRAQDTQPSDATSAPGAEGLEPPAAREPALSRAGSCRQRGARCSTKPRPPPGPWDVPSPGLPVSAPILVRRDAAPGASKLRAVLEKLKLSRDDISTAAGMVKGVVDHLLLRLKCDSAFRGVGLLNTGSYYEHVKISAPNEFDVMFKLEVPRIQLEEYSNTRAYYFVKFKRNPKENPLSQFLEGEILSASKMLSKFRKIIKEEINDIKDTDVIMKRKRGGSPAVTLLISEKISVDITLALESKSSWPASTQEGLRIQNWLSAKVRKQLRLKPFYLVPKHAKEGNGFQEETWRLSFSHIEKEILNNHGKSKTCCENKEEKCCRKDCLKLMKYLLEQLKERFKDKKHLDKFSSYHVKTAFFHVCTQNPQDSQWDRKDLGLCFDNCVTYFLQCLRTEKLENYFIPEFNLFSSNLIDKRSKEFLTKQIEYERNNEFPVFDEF

Consider `COCC[C@@H]1CNC(=O)[C@@H](C)c2c1[nH]c1c(Cl)c(Cl)cc(NCCO)c21`, for which the IC50 amounted to 8 nM. Take `C[C@@H]1C(=O)NCCc2[nH]c3c(Cl)c(Cl)cc(OCC#N)c3c21`: the half-maximal inhibitory concentration (IC50) came out at 2 nM. On to `Cn1ncc(-c2cc(Cl)c(Cl)c3[nH]c4c(c23)CC(=O)NCC4CC(=O)O)n1` (stereo unspecified), for which the IC50 was 5 nM. Take `COCCCOc1cc(Cl)c(Cl)c2[nH]c3c(c12)[C@H](C)C(=O)NCC3`: the IC50 amounted to 8 nM. Consider `CC(F)(F)C[C@@H]1CNC(=O)Cc2c1[nH]c1c(Cl)c(Cl)cc(CC#N)c21`, for which the IC50 worked out at 8 nM. Consider `C[C@@H]1C(=O)NCCc2[nH]c3c(Cl)c(Cl)cc(OCCCO)c3c21`, for which the IC50 came to 7 nM.

By IC50 is commonly meant the concentration that gives 50% inhibition.
